Measured values from the supplement of paper PMC7394473.

Key:
Settings in all cases: 72 h
[1] = test system: U2OS; experiment: fractional viability (live cells / total cells); higher = less cell death
Procedure: (§1)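 U2OS::Nuc-mKate2 cells seeded in 96-well plates and treated with eight- to ten-point half-log or log dilutions of drug in the presence of 50 nM SYTOX Green. Live (mKate2+) and dead (SYTOX+) cells were counted by IncuCyte STACK live-cell microscopy at 72 h; biological triplicates. GR is the normalised growth-rate inhibition value (Hafner 2016; 1 = untreated growth, <0 = population shrinking). FV is live/(live+dead) cells, not normalised.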

[2] = test system: U2OS; experiment: drug GRADE (percent of response due to cell death) (% (0-100)); higher = more death-driven response
Procedure: (§2)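 U2OS cells treated with full dose titrations of drug; live and dead cells counted by STACK microscopy (mKate2 nuclei, SYTOX Green) at 72 h, biological triplicates. GR and FV dose responses were fitted with 4-parameter logistic models (GR lower bound -1). GRADE (0-100) is the rescaled angle of a linear fit of FV versus GR at doses with GR >= 0, giving the percentage of the response due to cell death.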

[3] = test system: U2OS; experiment: GRmin (fitted minimal GR value at highest effect) (GR value (dimensionless)); higher = less efficacious
Procedure: as §2

[4] = test system: U2OS; experiment: normalized growth rate inhibition value (GR) relative to untreated cells (GR value (dimensionless, 1 = untreated growth)); higher = less growth inhibition
Procedure: as §1

[5] = test system: U2OS; experiment: GR50 (concentration giving GR = 0.5)
Procedure: as §2

Row | Structure (SMILES) | fractional viability ([1]; 0.01 µM) | fractional viability ([1]; 0.0316 µM) | fractional viability ([1]; 0.1 µM) | fractional viability ([1]; 0.316 µM) | fractional viability ([1]; 1 µM) | fractional viability ([1]; 3.16 µM) | fractional viability ([1]; 10 µM) | fractional viability ([1]; 31.6 µM) | drug GRADE [2] | GRmin [3] | normalized growth rate inhibition value ([4]; 0.01 µM) | normalized growth rate inhibition value ([4]; 0.0316 µM) | normalized growth rate inhibition value ([4]; 0.1 µM) | normalized growth rate inhibition value ([4]; 0.316 µM) | normalized growth rate inhibition value ([4]; 1 µM) | normalized growth rate inhibition value ([4]; 3.16 µM) | normalized growth rate inhibition value ([4]; 10 µM) | normalized growth rate inhibition value ([4]; 31.6 µM) | GR50 [5] [µM] | fractional viability ([1]; 0.00100578 µM) | fractional viability ([1]; 0.00317827 µM) | fractional viability ([1]; 0.0100433 µM) | fractional viability ([1]; 0.0317369 µM) | fractional viability ([1]; 0.100289 µM) | fractional viability ([1]; 0.316912 µM) | fractional viability ([1]; 1.00144 µM) | fractional viability ([1]; 3.16456 µM) | normalized growth rate inhibition value ([4]; 0.00100578 µM) | normalized growth rate inhibition value ([4]; 0.00317827 µM) | normalized growth rate inhibition value ([4]; 0.0100433 µM) | normalized growth rate inhibition value ([4]; 0.0317369 µM) | normalized growth rate inhibition value ([4]; 0.100289 µM) | normalized growth rate inhibition value ([4]; 0.316912 µM) | normalized growth rate inhibition value ([4]; 1.00144 µM) | normalized growth rate inhibition value ([4]; 3.16456 µM)
1 | CNC(=O)c1ccccc1Sc1ccc2c(/C=C/c3ccccn3)n[nH]c2c1 [Axitinib] | 0.977 | 0.978 | 0.97 | 0.972 | 0.956 | 0.788 | 0.949 | 0.91 | 32.1 | 0.534 | 0.956 | 0.956 | 0.887 | 0.994 | 0.822 | 0.223 | 0.733 | 0.643 | – | – | – | – | – | – | – | – | – | – | – | – | – | – | – | – | –
2 | Cc1c(N)nc([C@H](CC(N)=O)NC[C@H](N)C(N)=O)nc1C(=O)N[C@H](C(=O)N[C@H](C)[C@@H](O)[C@H](C)C(=O)N[C@H](C(=O)NCCc1nc(-c2nc(C(=O)NCCC[S+](C)C)cs2)cs1)[C@@H](C)O)[C@@H](OC1OC(CO)C(O)C(O)C1OC1OC(CO)C(O)C(OC(N)=O)C1O)c1cnc[nH]1 (some centres undefined) [Bleomycin] | – | – | – | – | – | – | 0.947 | – | 6.06 | 0.0459 | – | – | – | – | – | – | 0.0892 | – | 1.15 | 0.989 | 0.989 | 0.99 | 0.991 | 0.987 | 0.982 | 0.972 | 0.968 | 1.12 | 0.986 | 1.11 | 1.03 | 0.88 | 0.888 | 0.552 | 0.195
3 | COc1cc2nccc(Oc3ccc(NC(=O)C4(C(=O)Nc5ccc(F)cc5)CC4)cc3)c2cc1OC [Cabozantinib] | – | – | – | – | – | – | 0.647 | – | 9.76 | – | – | – | – | – | – | – | -0.338 | – | 2.79 | 0.984 | 0.986 | 0.985 | 0.981 | 0.979 | 0.977 | 0.968 | 0.917 | 1.02 | 0.963 | 1.03 | 1.07 | 0.938 | 0.954 | 0.843 | 0.443
4 | COc1cc2c(Oc3ccc4[nH]c(C)cc4c3F)ncnc2cc1OCCCN1CCCC1 [Cediranib] | – | – | – | – | – | – | 0.686 | – | 55.1 | – | – | – | – | – | – | – | 0.308 | – | 7.19 | 0.987 | 0.986 | 0.986 | 0.988 | 0.986 | 0.987 | 0.974 | 0.966 | 0.951 | 1.04 | 1.11 | 1.04 | 0.987 | 1.07 | 0.861 | 0.837
